Measured values: patent US20090081197A1 (Palatin Technologies, Inc., priority 2007, published 2009)
Like-named read-outs stand apart in the source and are kept apart here. Positions of bridges follow the written chain, without caps; N, C: chain ends. Non-standard residues stand in square brackets, D forms with d. Residues, ends and D or L forms follow the SMILES beside them. No end group written: not given here. 2Nal = N[C@@H](Cc1ccc2ccccc2c1)C(=O)O; d2Nal = N[C@H](Cc1ccc2ccccc2c1)C(=O)O; Nle = CCCC[C@H](N)C(=O)O

Columns and labels:
[1] = functional antagonists known not to cause PE response, cited from earlier work
[2] = target: T1, MC4-R (Homo sapiens, UniProt P32245); assay: Competitive inhibition assay using [I^125]-NDP-α-MSH, hMC4-R membranes; type: binding; parameters: host or cells: TREx-293 (HEK-293 stably expressing Tet repressor); settings: 1 μM test compound; read-out: Inhibition at 1 μM (NDP-α-MSH) In Normal System, MC4-R
T1 sequence (P32245 whole entry): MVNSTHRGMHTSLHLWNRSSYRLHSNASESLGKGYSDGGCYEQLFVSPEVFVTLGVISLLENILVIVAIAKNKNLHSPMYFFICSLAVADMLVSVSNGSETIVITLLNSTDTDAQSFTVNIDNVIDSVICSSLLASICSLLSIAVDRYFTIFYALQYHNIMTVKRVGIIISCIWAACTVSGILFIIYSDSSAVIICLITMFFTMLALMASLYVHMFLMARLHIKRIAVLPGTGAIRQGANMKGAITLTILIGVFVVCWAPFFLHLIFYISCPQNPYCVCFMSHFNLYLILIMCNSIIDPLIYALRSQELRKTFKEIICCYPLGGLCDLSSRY
Procedure, shortened: (§1)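 Tracer was 0.4 nM for MC3-R and MC5-R, 0.2 nM for MC4-R and 0.1 nM for MC1-R. Bound radioactivity was gamma-counted after filtration; values are triplicate means, with results below 0% reported as 0%.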

[3] = target: T2, human MC1-R (Homo sapiens, UniProt Q01726); assay: Competitive inhibition assay using [I^125]-NDP-α-MSH, human MC1-R (separate experiments); type: binding; settings: separate experiments with human MC1-R; read-out: Ki (nM) (NDP-α-MSH) in a normal system, human MC1-R
T2 construct: expressed in transfected cells
T2 sequence (Q01726 whole entry): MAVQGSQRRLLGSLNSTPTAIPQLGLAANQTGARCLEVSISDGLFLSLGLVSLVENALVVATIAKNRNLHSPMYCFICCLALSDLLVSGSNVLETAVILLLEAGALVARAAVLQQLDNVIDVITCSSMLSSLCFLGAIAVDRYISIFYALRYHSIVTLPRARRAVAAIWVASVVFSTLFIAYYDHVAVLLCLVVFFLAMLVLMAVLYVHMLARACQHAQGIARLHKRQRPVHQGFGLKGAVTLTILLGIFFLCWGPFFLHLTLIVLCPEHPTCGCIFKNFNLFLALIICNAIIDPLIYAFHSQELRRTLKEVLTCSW

[4] = ICV food intake and body weight change; type: in vivo; settings: rat, 1 nmol
Procedure, shortened: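 Rats fitted with intracerebroventricular cannulas and fed ad libitum got a single ICV dose of vehicle or compound (1-3 nmol). Food intake and body-weight change over the 24 h after dosing were compared with a 1-week vehicle baseline. Values at 48 h and 72 h were also recorded to follow return to baseline.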

[5] = target: T1, MC4-R; assay: cAMP agonist stimulation, high receptor density system (10 ng/mL doxycycline); settings: for Efficacy/Intrinsic Activity: 10 ng/mL doxycycline, high receptor density hMC4-R system, NDP-α-MSH maximal cAMP = 1.0
[6] = target: T3, MC1-R (Mus musculus, UniProt Q01727); assay: Competitive inhibition assay using [I^125]-NDP-α-MSH, B-16 mouse melanoma cell membranes; type: binding; settings: 1 μM test compound; read-out: Inhibition at 1 μM (NDP-α-MSH) In Normal System, MC1-R
T3 construct: B-16 mouse melanoma cells (containing MC1-R); endogenous in cells
T3 sequence (Q01727 whole entry): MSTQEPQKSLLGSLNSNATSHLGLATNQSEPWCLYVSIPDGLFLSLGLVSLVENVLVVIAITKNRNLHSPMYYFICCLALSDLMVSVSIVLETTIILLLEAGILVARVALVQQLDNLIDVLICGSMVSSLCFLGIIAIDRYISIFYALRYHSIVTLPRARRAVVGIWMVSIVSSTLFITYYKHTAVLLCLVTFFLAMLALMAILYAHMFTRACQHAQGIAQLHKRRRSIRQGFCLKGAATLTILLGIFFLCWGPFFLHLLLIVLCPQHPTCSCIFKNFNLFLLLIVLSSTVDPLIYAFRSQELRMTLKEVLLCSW
Procedure, shortened: as §1

[7] = target: T4, MC5-R (Homo sapiens, UniProt P33032); assay: Competitive inhibition assay using [I^125]-NDP-α-MSH, hMC5-R membranes; type: binding; parameters: expressed in transfected cells; settings: 1 μM test compound; read-out: Inhibition at 1 μM (NDP-α-MSH) In Normal System, MC5-R
T4 sequence (P33032 whole entry): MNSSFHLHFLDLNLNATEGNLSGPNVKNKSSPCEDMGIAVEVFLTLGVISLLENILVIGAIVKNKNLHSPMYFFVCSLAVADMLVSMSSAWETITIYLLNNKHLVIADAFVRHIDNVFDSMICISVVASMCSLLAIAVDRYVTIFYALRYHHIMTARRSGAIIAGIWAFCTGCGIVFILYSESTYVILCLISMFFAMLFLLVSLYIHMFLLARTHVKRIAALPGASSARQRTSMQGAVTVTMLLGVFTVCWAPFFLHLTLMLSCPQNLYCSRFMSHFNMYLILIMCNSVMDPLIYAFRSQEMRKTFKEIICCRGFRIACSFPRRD
Procedure, shortened: as §1

[8] = target: T1, MC4-R; assay: cAMP agonist stimulation, low receptor density system (0.1 ng/mL doxycycline); settings: 0.1 ng/mL doxycycline, low receptor density hMC4-R system; NDP-α-MSH maximal cAMP = 1.0
[9] = Penile erection induction in male rats; type: in vivo; settings: rat, ICV
Procedure, shortened: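 Male Sprague-Dawley rats (200-250 g), groups of 4-8, dosed IV or ICV at various doses and observed individually for penile erections. Only statistically relevant increases over vehicle-control mean PEs count as induction; IV responses below 1.0 PEs/rat treated as equivocal, some retested ICV.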

[10] = target: T5, MC3-R (Homo sapiens, UniProt P41968); assay: Competitive inhibition assay using [I^125]-NDP-α-MSH, hMC3-R membranes; type: binding; parameters: expressed in transfected cells; settings: 1 μM test compound; read-out: Inhibition at 1 μM (NDP-α-MSH) In Normal System, MC3-R
T5 sequence (P41968 whole entry): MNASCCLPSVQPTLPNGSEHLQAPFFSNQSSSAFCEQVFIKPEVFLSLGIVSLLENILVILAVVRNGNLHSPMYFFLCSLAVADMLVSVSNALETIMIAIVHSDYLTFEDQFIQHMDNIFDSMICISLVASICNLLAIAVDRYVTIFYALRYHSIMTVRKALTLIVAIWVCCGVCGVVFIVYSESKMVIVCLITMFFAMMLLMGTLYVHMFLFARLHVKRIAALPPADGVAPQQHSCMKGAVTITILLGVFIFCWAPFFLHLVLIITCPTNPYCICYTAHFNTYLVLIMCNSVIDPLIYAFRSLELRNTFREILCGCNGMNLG
Procedure, shortened: as §1

[11] = target: T1, MC4-R; assay: cAMP functional activity assay in HEK-293 cells, normal system; type: cell-based; parameters: expressed in transfected cells; host or cells: HEK-293
[12] = target: T1, MC4-R; assay: Assay for neutral antagonist, Schild analysis (pA2) against NDP-α-MSH; type: cell-based; parameters: expressed in transfected cells; host or cells: HEK-293; settings: Schild analysis vs NDP-α-MSH; read-out: pA2 value as antagonist at MC4-R in a normal system (converted)
Method: Assay for Neutral Antagonist. […] These studies were carried out in HEK-293 cells expressing the MC4-R receptor. Cells were incubated with the compounds in the presence of the agonist NDP-α-MSH and the extent of antagonism was measured by the decrease in the level of intracellular cAMP. Screening the compounds for antagonists was done at a single concentration of NDP-α-MSH (1.0 nM) over a compound concentration range of 0.5-5000 nM.
Experimental details were similar to the analysis for agonistic activity described above. Briefly, cells were pre-incubated for 30 minutes with the test compounds at concentrations between 0.5 nM and 5000 nM. The cells were then stimulated with NDP-α-MSH at a concentration of 1 nM for 1 hour. For Schild analysis, the interactions were studied using at least 3 concentrations of the compounds, separated by a log unit, over a full range of the agonist (0.005-5000 nM). cAMP levels was measured in the cell lysates after appropriate dilution. Nonlinear regression analysis with Prism Graph-Pad software was used for Schild analysis and to obtain EC50 values. pA2 values were derived from the Schild plot of the data.

[13] = IV and IP food intake and body weight change, rats; type: in vivo; settings: rat, 10 mg/kg, 24 hours
Method: IV and IP food intake and body weight change. Change in food intake and body weight was evaluated for selected compounds. Male Sprague-Dawley rats or male C57BL/6 mice were utilized. Animals were individually housed in conventional plexiglass hanging cages and maintained on a controlled 12 hour on/off light cycle. Water and powdered (LabDiet, 5P00 Prolab RMH 3000) or pelleted (Harlan Teklad 2018 18% Protein Rodent Diet) food was provided ad libitum. For 1 week before treatment, 24-hour food intake and body weight change was recorded to assess a baseline for the group during vehicle treatment. The rats were dosed IV with vehicle or selected compounds (0.5-3 mg/kg, and in some cases up to 10 mg/Kg) or dosed intraperitoneally (IP) with vehicle or selected compounds (0.5-10 mg/kg, and in some cases up to 50 mg/kg). Mice were dosed IP. The changes in body weight and food intake for the 24 hour period after dosing were determined. The changes in body weight and food intake for the 48 hour and 72 hour periods after dosing were also measured to determined reversal of changes in body weight and food intake effects back to baseline levels.

[14] = target: T3, MC1-R; assay: cAMP functional activity assay in B-16 mouse melanoma cells; type: cell-based; settings: 1 μM concentration where stated
Method: (§2) General method for EC50 determination in functional activity assay. […] Data analysis and EC50 values were determined using nonlinear regression analysis with Prism Graph-Pad software.
(§3) Functional status. The agonist/antagonist status with respect to MC1-R, MC-3R, MC4-R and MC5-R of certain compounds of the invention was determined. Antagonistic activity was determined by measuring the inhibition of α-MSH-induced or NDP-α-MSH-induced cAMP levels following exposure to graded doses of compounds as in the preceding descriptions.

[15] = IP (and IN) food intake, mice; type: in vivo; settings: mouse, IP, 4 hours
Procedure, shortened: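 Male Sprague-Dawley rats dosed IV (0.5-3, up to 10 mg/kg) or IP (0.5-10, up to 50 mg/kg); male C57BL/6 mice dosed IP. Change in food intake and body weight over 24 h post-dose versus 1-week vehicle baseline, with 48 and 72 h reversal checks.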

[16] = target: T5, MC3-R; assay: cAMP functional activity assay in HEK-293 cells; type: cell-based; parameters: expressed in transfected cells; host or cells: HEK-293; settings: 1 μM concentration where stated
Method: as §2, §3

[17] = target: T4, MC5-R; assay: cAMP functional activity assay in HEK-293 cells; type: cell-based; parameters: expressed in transfected cells; host or cells: HEK-293; settings: 1 μM concentration where stated
Method: as §2, §3

Compound | Penile Erection ICV [1] | Penile Erection IV [1] | inhibition at 1 µM [2] [%] | Efficacy/Intrinsic Activity [5] | inhibition at 1 µM [6] [%] | inhibition at 1 µM [7] [%] | Efficacy/Intrinsic Activity [8] | inhibition at 1 µM [10] [%] | Kb [12] [µM] | also measured
cyclo 2,7[Ac-Nle-Asp-His-D-Nal 2-Arg-Trp-Lys]-NH2 [SHU-9119] | No | No | – | – | – | – | – | – | – | –
CCCC[C@H](NC(C)=O)C(=O)N[C@H]1CC(=O)NCCCC[C@@H](C(=O)O)NC(=O)[C@H](Cc2ccc3ccccc3c2)NC(=O)[C@H](CCCNC(=N)N)NC(=O)[C@@H](Cc2ccc3ccccc3c2)NC(=O)[C@H](Cc2c[nH]cn2)NC1=O [Example 34, Ac-Nle-cyclo(Asp-His-D-Nal 2-Arg-Nal 2-Lys)-OH] (Ac-[Nle]DH[d2Nal]R[2Nal]K-OH; lactam 2-7) | – | – | 100 | None | 102 | 100 | None | 98 | 0.00794 | Ki [3]: 0.25 nM; 24 hour increase in food intake [4]: 12 g; increase in body weight ([4]; 24 hours): 16 g; Penile Erection ICV [9]: No; PE efficacy ([9]; 3 nanomole): inactive; functional status at MC4-R in cAMP assay ([11]; at 1 nM dose): inactive
AGRP (83-132): AgRP (83-132); functional antagonist known not to cause PE response (SSRRCVRLHESCLGQQVPCCDPCATCYCRFFNAFCYCRKLGTAMNPCSRT; ends and bridges not checked; cysteine pairing not given here) [reference compound] | No | No | – | None | – | – | None | – | – | –
C[C@@H]1CN(C(=O)[C@H](N)Cc2ccc(Cl)cc2Cl)[C@@H](CCCNC(=N)N)CN1CCc1ccc2ccccc2c1 [Example 11, N-{3-[1-[2(R)-Amino-3-(2,4-dichloro-phenyl)-propionyl]-5(R)-methyl-4-(2-naphthalen-2-yl-ethyl)-piperazin-2(S)-yl]-propyl}-guanidine] | – | – | 99 | 0.49 | 20 | 65 | None | 72 | 0.0158 | maximal decrease in food intake ([13]; IP): 19%; maximal decrease in food intake ([13]; IV): 87%; functional status at MC1-R in cAMP assay [14]: inactive; EC50 [5]: 0.061 µM; maximal decrease in food intake ([15]; 3 mg/kg): 10%; maximal decrease in food intake ([15]; 10 mg/kg): 30%; functional status at MC3-R in cAMP assay [16]: inactive; functional status at MC5-R in cAMP assay [17]: inactive; functional status at MC4-R in cAMP assay ([11]; normal system, 1 μM concentration where stated): antagonist
